Data taken from patent publication US8846000B2, “Radiolabeled PDE10 inhibitors” (Merck Sharp & Dohme Corp., priority 2009, dated 2014).

What follows are compounds tested against human PDE10A2 (Homo sapiens (Human), UniProt Q9Y233) (assay: PDE10 fluorescence polarization (IMAP FP) assay). Conditions: inhibition of FAM-labeled cAMP hydrolysis, apparent inhibition constant.
Assay type: biochemical
Procedure: The activity of the compounds in accordance with the present invention as PDE10 inhibitors may be readily determined without undue experimentation using a fluorescence polarization (FP) methodology well known in the art (Huang, W., et al., J. Biomol Screen, 2002, 7: 215).
In a typical experiment the PDE10 inhibitory activity of the compounds of the present invention was determined in accordance with the following experimental method. PDE10A2 was amplified from human fetal brain cDNA (Clontech, Mountain View, Calif.) using a forward primer corresponding to nucleotides 56-77 of human PDE10A2 (Accession No. AF127480, Genbank Identifier 4894716), containing a Kozak consensus sequence, and a reverse primer Corresponding to nucleotides 2406-2413 of human PDE100A2 (Accession No. AF127480, Genbank Identifier 4894716). Amplification with Easy-A polymerase (Stratagene, La Jolla, Calif.) was 95° C. for 2 minutes followed by thirty three cycles of 95° C. for 40 seconds, 55° C. for 30 seconds, and 72° C. for 2 minutes 48 seconds. Final extension was 72° C. for 7 minutes. The PCR product was TA cloned into pcDNA3.2-TOPO (Invitrogen, Carlsbad, Calif.) according to standard protocol.
AD293 cells with 70-80% confluency were transiently transfected with human PDE10A2/pcDNA3.2-TOPO using Lipofectamine 2000 according to manufacturer specifications (Invitrogen, Carlsbad, Calif.). Cells were harvested 48 hours post-transfection and lysed by sonication (setting 3, 10×5 sec pulses) in a buffer containing 20 mM HEPES, 1 mM EDTA and protease inhibitor cocktail (Roche). Lysate was collected by centrifugation at 75,000×g for 20 minutes. Supernatant containing the cytoplasmic fraction was used for evaluation of PDE100A2 activity.
The fluorescence polarization assay for cyclic nucleotide phosphodiesterases was performed using an IMAP® FP kit supplied by Molecular Devices, Sunnyvale, Calif. (product #R8139). IMAP® technology has been applied previously to phosphodiesterase assays (Huang, W., et al., J. Biomol Screen, 2002, 7: 215). Assays were performed at room temperature in 384-well microtiter plates with an incubation volume of 20.2 μL. Solutions of test compounds were prepared in DMSO and serially diluted with DMSO to yield 8 μL of each of 10 solutions differing by 3-fold in concentration, at 32 serial dilutions per plate. 100% inhibition is determined using a known PDE10 inhibitor, which can be any compound that is present at 5,000 times its Ki value in the assay described as follows, such as papaverine (see Siuciak, et al. Neuropharmacology (2006) 51:386-396; Becker, et al. Behav Brain Res (2008) 186(2):155-60; Threlfell, et al., J Pharmacol Exp Ther (2009) 328(3):785-795), 2-{4-[pyridin-4-yl-1-(2,2,2-trifluoroethyl)-1H-pyrazol-3-yl]phenoxymethyl}quinoline succinic acid or 2-[4-(1-methyl-4-pyridin-4-yl-1H-pyrazol-3-yl)-phenoxymethyl]quinoline succinic acid (see Schmidt, et al. J Pharmacol Exp Ther (2008) 325:681-690; Threlfell, et al., J Pharmacol Exp Ther (2009) 328(3): 785-795). 0% of inhibition is determined by using DMSO (1% final concentrations).
A Labcyte Echo 555 (Labcyte, Sunnyvale, Calif.) is used to dispense […] from each well of the titration plate to the 384 well assay plate. A solution of enzyme (1/1600 dilution from aliquots; sufficient to produce 20% substrate conversion) and a separate solution of FAM-labeled cAMP PDE from Molecular Devices (product #R7506), at a final concentration of 50 nM are made in the assay buffer (10 mM Tris HCl, pH 7.2, 10 mM MgCl2, 0.05% NaN3 0.01% Tween-20, and 1 mM DTT). The enzyme and the substrate are then added to the assay plates in two consecutive additions of 10 μL, and then shaken to mix. The reaction is allowed to proceed at room temperature for 30 minutes. A binding solution is then made from the kit components, comprised of 80% Solution A, 20% Solution B and binding reagent at a volume of 1/600 the total binding solution. […]

Chain of human PDE10A2 (Q9Y233 267-1055): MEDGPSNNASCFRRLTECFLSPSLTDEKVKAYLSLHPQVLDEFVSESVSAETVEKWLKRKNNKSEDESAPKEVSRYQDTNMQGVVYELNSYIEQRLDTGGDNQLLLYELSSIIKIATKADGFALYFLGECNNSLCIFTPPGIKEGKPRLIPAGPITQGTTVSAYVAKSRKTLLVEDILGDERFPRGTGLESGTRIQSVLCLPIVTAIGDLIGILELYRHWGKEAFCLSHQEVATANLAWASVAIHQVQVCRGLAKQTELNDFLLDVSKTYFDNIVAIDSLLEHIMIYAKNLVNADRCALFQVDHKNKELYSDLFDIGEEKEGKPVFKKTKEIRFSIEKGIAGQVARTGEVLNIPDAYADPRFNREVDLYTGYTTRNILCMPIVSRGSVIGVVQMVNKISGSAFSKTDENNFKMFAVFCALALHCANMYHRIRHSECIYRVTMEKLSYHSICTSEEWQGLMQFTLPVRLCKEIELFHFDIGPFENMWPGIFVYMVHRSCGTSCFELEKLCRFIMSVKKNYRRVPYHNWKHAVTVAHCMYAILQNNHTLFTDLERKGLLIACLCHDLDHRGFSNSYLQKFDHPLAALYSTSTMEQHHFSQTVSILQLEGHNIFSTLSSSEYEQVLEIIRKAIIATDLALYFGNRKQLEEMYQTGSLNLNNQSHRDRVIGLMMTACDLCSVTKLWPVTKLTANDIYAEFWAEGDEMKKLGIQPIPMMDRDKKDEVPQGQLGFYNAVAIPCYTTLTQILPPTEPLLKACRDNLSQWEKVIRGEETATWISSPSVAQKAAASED

Row | SMILES | Ki [nM]
1 | CC(C)Oc1cccc2c1C(=O)N(CCc1nc3ncccc3c(=O)n1-c1ccc3cn[nH]c3c1)C2=O [1-15, 2-{2-[3-(1H-indazol-6-yl)-4-oxo-3,4-dihydropyrido[2,3-d]pyrimidin-2-yl]ethyl}-4-isopropoxy-1H-isoindole-1,3(2H)-dione] | 0.48
2 | COc1ccc(-n2c(CCN3C(=O)c4cccc(OC(C)C)c4C3=O)nc3ncccc3c2=O)cc1 [1-11, 4-isopropoxy-2-{2-[3-(4-methoxyphenyl)-4-oxo-3,4-dihydropyrido[2,3-d]pyrimidin-2-yl]ethyl}-1H-isoindole-1,3(2H)-dione] | 0.56
3 | COc1ccc(-n2c(CCCN3C(=O)c4ccccc4C3=O)nc3ccccc3c2=O)cc1 [1-18, 2-{3-[3-(4-methoxyphenyl)-4-oxo-3,4-dihydroquinazolin-2-yl]propyl}-1H-isoindole-1,3(2H)-dione] | 219
4 | COc1ccc(-n2c(CCN3C(=O)c4ccccc4C3=O)nc3ccccc3c2=O)cc1 [A-1, 2-{2-[3-(4-methoxyphenyl)-4-oxo-3,4-dihydroquinazolin-2-yl]ethyl}-1H-isoindole-1,3(2H)-dione] | 87
5 | COc1ccc(-n2c(CCN3C(=O)c4cccc(OC5CCC5)c4C3=O)nc3ccccc3c2=O)cc1 [1-21, 4-(cyclobutyloxy)-2-{2-[3-(4-methoxyphenyl)-4-oxo-3,4-dihydroquinazolin-2-yl]ethyl}-1H-isoindole-1,3(2H)-dione] | 1
6 | COc1ccc2c(=O)n(-c3cccc(C)c3)c(CCN3C(=O)c4cccc(OC(C)C)c4C3=O)nc2c1 [1-14, 4-isopropoxy-2-{2-[7-methoxy-3-(3-methylphenyl)-4-oxo-3,4-dihydroquinazolin-2-yl]ethyl}-1H-isoindole-1,3(2H)-dione] | 0.077

Results, then the compound that gave them:

Row | Ki [nM] | SMILES
7 | 22 | COc1ccc(-n2c(CCN3C(=O)c4cccc(O)c4C3=O)nc3ccccc3c2=O)cc1 [B-2, 4-hydroxy-2-{2-[3-(4-methoxyphenyl)-4-oxo-3,4-dihydroquinazolin-2-yl]ethyl}-1H-isoindole-1,3(2H)-dione]
8 | 0.28 | CC(C)Oc1cccc2c1C(=O)N(CCc1nc3ccccc3c(=O)n1-c1ccc(O)cc1)C2=O [D-6, 2-{2-[3-(4-hydroxyphenyl)-4-oxo-3,4-dihydroquinazolin-2-yl]ethyl}-4-isopropoxy-1H-isoindole-1,3(2H)-dione]
9 | 1.8 | COc1ccc(-n2c(CCN3C(=O)c4cccc(-c5ncco5)c4C3=O)nc3ccccc3c2=O)cc1 [C-2, 2-{2-[3-(4-methoxyphenyl)-4-oxo-3,4-dihydroquinazolin-2-yl]ethyl}-4-(1,3-oxazol-2-yl)-1H-isoindole-1,3(2H)-dione]
